Literature values in US20070275949A1, “Benzazepine Derivatives and Methods of Prophylaxis or Treatment of 5Ht2C Receptor Associated Diseases” (Arena Pharmaceuticals, Inc., priority 2003, published 2007).

Tested on: guinea pigs
Settings: in vivo, repeat administration

SMILES: C[C@H](N)Cc1cccc(C(F)(F)F)c1 [dexnorfenfluramine]
- amyloid precursor protein (APPs) secretion: stimulated
- levels of Aβ production: reducing
